Data as given in ChEMBL document CHEMBL5303304, “EUbOPEN Chemogenomics Library - IncuCyte” (2023).

Tests used:
Assay type in all cases: toxicity, cell-based
[1] = system: U2OS; experiment: Incucyte cell viability with U2OS; conditions: human, 10 µM, compound concentration 10 uM
[2] = system: HEK-293T; experiment: Incucyte cell viability with HEK293T; conditions: human, 10 µM, compound concentration 10 uM
[3] = system: Fibroblast; experiment: Incucyte cell viability with human fibroblast; conditions: 10 µM, compound concentration 10 uM
Also: unitless GR value; below 1 slowed growth and below 0 cell loss.

SMILES | Growth Rate ([1]; 0 h, replicate number 1) | Growth Rate ([1]; 0 h, replicate number 2) | Growth Rate ([2]; 24 h, replicate number 2) | Growth Rate ([3]; 0 h, replicate number 1) | Growth Rate ([3]; 0 h, replicate number 2) | Growth Rate ([3]; 6 h, replicate number 1) | Growth Rate ([1]; 6 h, replicate number 1) | Growth Rate ([1]; 6 h, replicate number 2) | Growth Rate ([1]; 12 h, replicate number 2) | Growth Rate ([2]; 6 h, replicate number 1) | Growth Rate ([2]; 6 h, replicate number 2) | Growth Rate ([2]; 12 h, replicate number 1) | Growth Rate ([2]; 12 h, replicate number 2) | Growth Rate ([2]; 18 h, replicate number 1) | Growth Rate ([2]; 18 h, replicate number 2) | Growth Rate ([2]; 24 h, replicate number 1) | Growth Rate ([3]; 6 h, replicate number 2) | Growth Rate ([3]; 12 h, replicate number 1) | Growth Rate ([3]; 12 h, replicate number 2) | Growth Rate ([3]; 18 h, replicate number 1) | other results
Cc1ccc(S(=O)(=O)O)cc1.Cn1cc(-c2ccc(F)c(C(F)(F)F)c2)nc1C1CCN(c2ncnc3[nH]ncc23)CC1 | 0.87 | -1 | 0.9 | 0.54 | -0.97 | -1 | – | – | – | – | – | – | – | – | – | – | – | – | – | – | Growth Rate ([2]; 0 h, replicate number 1): 0.72; Growth Rate ([2]; 0 h, replicate number 2): -0.63
Cc1ccc(NC(=O)c2ccc3cnccc3c2)cc1C(=O)Nc1cnc(Nc2cccc(NC3CCN(C(=O)/C=C/CN(C)C)CC3)c2)nc1 | – | -0.97 | -0.39 | 0.35 | -0.14 | – | -0.26 | 0.51 | 0.68 | -0.97 | -0.98 | -0.87 | -0.77 | -0.65 | -0.56 | -0.54 | -1 | -0.99 | -0.71 | -0.78 | Growth Rate ([1]; 12 h, replicate number 1): 0.17; Growth Rate ([1]; 18 h, replicate number 1): 0.33; Growth Rate ([1]; 18 h, replicate number 2): 0.49; Growth Rate ([1]; 24 h, replicate number 1): 0.27; Growth Rate ([1]; 24 h, replicate number 2): 0.46; Growth Rate ([3]; 18 h, replicate number 2): -0.42; Growth Rate ([3]; 24 h, replicate number 1): -0.28; Growth Rate ([3]; 24 h, replicate number 2): -0.3
O=C(Nc1ccc(Cl)nc1)c1ccc(Cl)cc1 | -0.12 | -0.39 | 0.65 | -0.21 | -0.9 | -0.32 | – | – | – | 0.33 | 0.16 | 0.71 | 0.63 | 0.59 | 0.53 | 0.63 | – | – | – | – | Growth Rate ([1]; 12 h, replicate number 1): 0.95; Growth Rate ([3]; 24 h, replicate number 1): 0.54
CC(=O)Nc1nc(CN2CCC[C@H](Cc3cc(C)nc(C)c3)C2)cs1 [JNJ-73924149] | – | – | 0.95 | – | – | 0.58 | – | – | 0.87 | 0.52 | 0.53 | 0.71 | – | 0.81 | 0.95 | 0.82 | 0.73 | 0.89 | 0.74 | 0.87 | Growth Rate ([1]; 18 h, replicate number 1): 0.89; Growth Rate ([1]; 24 h, replicate number 2): 0.91; Growth Rate ([3]; 18 h, replicate number 2): 0.72; Growth Rate ([3]; 24 h, replicate number 2): 0.79
CCOC(=O)/N=C(\N)c1ccc(OCc2cccc(COc3ccc(C(C)(C)c4ccc(OC(=O)OCC)cc4)cc3)c2)cc1 | – | – | 0.11 | -0.98 | – | 0.42 | 0.84 | – | – | -0.49 | -0.42 | 0.04 | -0.1 | 0.49 | 0.08 | 0.77 | -0.28 | 0.73 | 0.87 | 0.66 | Growth Rate ([3]; 18 h, replicate number 2): 0.76; Growth Rate ([3]; 24 h, replicate number 1): 0.41; Growth Rate ([3]; 24 h, replicate number 2): 0.79
O=c1[nH]c(CS[C@H]2CC[C@H](O)CC2)nc2cc(OCC3CC3)cc(F)c12 | -0.28 | 0.9 | 0.94 | – | 0.47 | – | 0.81 | 0.82 | 0.73 | – | – | – | – | – | 1 | 0.87 | 0.65 | – | 0.67 | – | Growth Rate ([1]; 12 h, replicate number 1): 0.45; Growth Rate ([1]; 18 h, replicate number 1): 0.92; Growth Rate ([1]; 18 h, replicate number 2): 0.66; Growth Rate ([1]; 24 h, replicate number 1): 0.98; Growth Rate ([1]; 24 h, replicate number 2): 0.64; Growth Rate ([2]; 0 h, replicate number 1): 0.63
CC(C)(C)C1CCc2c(sc(NC(=O)c3ccco3)c2C(=O)O)C1 (centres undefined) | – | -1 | -0.13 | -0.35 | -0.91 | 0.79 | -0.02 | 0.95 | 0.8 | -0.05 | 0 | -0.04 | -0.11 | -0.24 | -0.17 | -0.21 | -0.97 | -1 | 0.65 | -0.68 | Growth Rate ([1]; 18 h, replicate number 2): 0.79; Growth Rate ([1]; 24 h, replicate number 2): 0.84; Growth Rate ([2]; 0 h, replicate number 2): 0.67
Cc1ccc(C)c(OCCCC(C)(C)C(=O)O[C@@H]2O[C@H](C(=O)O)[C@@H](O)[C@H](O)[C@H]2O)c1 | 0.28 | -0.96 | 0.91 | 0.21 | – | 0.96 | 0.4 | 0.89 | 0.99 | – | 0.49 | – | 0.64 | – | 0.87 | – | -0.9 | -1 | 0.42 | -0.29 | Growth Rate ([1]; 12 h, replicate number 1): 0.78; Growth Rate ([1]; 18 h, replicate number 1): 0.89; Growth Rate ([1]; 24 h, replicate number 1): 0.9; Growth Rate ([2]; 0 h, replicate number 1): 0.57; Growth Rate ([3]; 24 h, replicate number 1): 0.68; Growth Rate ([3]; 24 h, replicate number 2): 0.89
